Reference: patent publication US20250090572A1 (priority 2020, published 2025)

Columns and labels:
[1] = tested on: Pseudovirus particles containing surface Wuhan-Hu-1 SGP; type: cell-based, SARS-CoV-2
SARS-CoV-2 spike protein = SARS-CoV-2 spike protein (Severe acute respiratory syndrome coronavirus 2, UniProt P0DTC2); type: binding; settings: spike protein 50 nM, polysaccharide 1 μM

With heparin as the substance, how does the IC50 [1] read?
The IC50 was 4.6 µg/mL.

And the Binding inhibition (SARS-CoV-2 spike protein; competitive binding inhibition between polysaccharide-spike protein complex and heparin-SPR chip)?
Its Binding inhibition is 82 ± 7.5%.

What about the “competition with immobilized heparin for spike protein binding” value (SARS-CoV-2 spike protein) of the same substance?
The value was “competed with heparin for spike protein binding”.

Which IC50 [1] does the source give for pentosan polysulfate [PPS] here?
The IC50 was 1.6 µg/mL.
